Reference: the supplement of paper PMC11061612

Legend:
Assay in all cases: Bliss excess, mean over the matrix (fraction); higher = more synergy
[1] = system: BL-41 (Burkitt's Lymphoma)
Summary of the method: (§1)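 Cell lines in DMEM/F12 or RPMI with 10% FBS were plated in 1536-well plates, held 24 hours at 37°C, 5% CO2, then given two-drug dose matrices for 72 hours (DMSO typically 0.2%). Viability was read by CellTiter-Glo 2.0 luminescence and scaled as inhibition from 0 (vehicle wells) to 1 (blank wells). Combination Emax is the second-highest inhibition in the matrix; Bliss excess is observed combination effect minus expected EA + EB − EA·EB, EA and EB being single-agent effects.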

ES8 (Ewing's Sarcoma) = system: ES8 (Ewing's Sarcoma)
Summary of the method: as §1

[2] = system: MOLT-16 (T-Lymphoblastic Leukemia)
Summary of the method: as §1

[3] = system: KM12 (Colorectal Carcinoma)
Summary of the method: as §1

[4] = system: SU-DHL-8 (B-Cell Non-Hodgkin's Lymphoma)
Summary of the method: as §1

MEL-JUSO (Melanoma) = system: MEL-JUSO (Melanoma)
Summary of the method: as §1

WM-115 (Melanoma) = system: WM-115 (Melanoma)
Summary of the method: as §1

WIL2-NS (Non-Cancerous) = system: WIL2-NS (Non-Cancerous)
Summary of the method: as §1

ES1 (Ewing's Sarcoma) = system: ES1 (Ewing's Sarcoma)
Summary of the method: as §1

[5] = system: MKN28 (Gastric Carcinoma)
Summary of the method: as §1

[6] = system: HL-60 (Acute Myeloid Leukemia)
Summary of the method: as §1

[7] = system: SW1417 (Colorectal Carcinoma)
Summary of the method: as §1

[8] = system: BFTC-905 (Bladder Carcinoma)
Summary of the method: as §1

[9] = system: CAMA-1 (Breast Carcinoma)
Summary of the method: as §1

[10] = system: MS751 (Cervical Carcinoma)
Summary of the method: as §1

[11] = system: KARPAS-45 (T-Lymphoblastic Leukemia)
Summary of the method: as §1

[12] = system: GR-ST (B-Lymphoblastic Leukemia)
Summary of the method: as §1

NCI-H2818 (Mesothelioma) = system: NCI-H2818 (Mesothelioma)
Summary of the method: as §1

CHP-212 (Neuroblastoma) = system: CHP-212 (Neuroblastoma)
Summary of the method: as §1

[13] = system: NCI-H847 (Small Cell Lung Carcinoma)
Summary of the method: as §1

| Compound | Bliss excess [1] | Bliss excess (ES8 (Ewing's Sarcoma)) | Bliss excess [2] | Bliss excess [3] | Bliss excess [4] | Bliss excess (MEL-JUSO (Melanoma)) | Bliss excess (WM-115 (Melanoma)) | Bliss excess (WIL2-NS (Non-Cancerous)) | Bliss excess (ES1 (Ewing's Sarcoma)) | Bliss excess [5] | Bliss excess [6] | Bliss excess [7] | Bliss excess [8] | Bliss excess [9] | Bliss excess [10] | Bliss excess [11] | Bliss excess [12] | Bliss excess (NCI-H2818 (Mesothelioma)) | Bliss excess (CHP-212 (Neuroblastoma)) | Bliss excess [13] |
| --- | --- | --- | --- | --- | --- | --- | --- | --- | --- | --- | --- | --- | --- | --- | --- | --- | --- | --- | --- | --- |
| CC1(C)CCC(CN2CCN(c3ccc(C(=O)NS(=O)(=O)c4ccc(NCC5CCOCC5)c([N+](=O)[O-])c4)c(Oc4cnc5[nH]ccc5c4)c3)CC2)=C(c2ccc(Cl)cc2)C1 [Venetoclax] + COc1cc(Nc2ncc3c(n2)-c2ccc(Cl)cc2C(c2c(F)cccc2OC)=NC3)ccc1C(=O)O [Alisertib] (first compound max 1 µM, 7x7, partner max 10 µM) | -0.0436 | -0.104 | 0.0623 | -0.0669 | -0.0869 | -0.0463 | -0.0539 | -0.0522 | 0.0385 | -0.0541 | 0.0894 | -0.0705 | -0.0387 | -0.0072 | 0.0342 | 0.0544 | 0.0444 | -0.0547 | -0.0654 | 0.0304 |
| Cc1c2c(nn1C)CSCc1cc(n(C)n1)CSc1cc(c3ccccc3c1)OCCCc1c(C(=O)O)n(C)c3c-2c(Cl)ccc13 [AZD5991] + CC1(C)CCC(CN2CCN(c3ccc(C(=O)NS(=O)(=O)c4ccc(NCC5CCOCC5)c([N+](=O)[O-])c4)c(Oc4cnc5[nH]ccc5c4)c3)CC2)=C(c2ccc(Cl)cc2)C1 [Venetoclax] (first compound max 1 µM, 7x7, partner max 1 µM) | 0.0108 | 0.0936 | 0.063 | 0.0015 | 0.0491 | -0.0297 | -0.0496 | -0.0302 | 0.0817 | -0.0332 | 0.0723 | -0.0294 | -0.0016 | 0.0985 | 0.0031 | 0.141 | -0.0484 | -0.0489 | -0.0416 | 0.253 |
| C[C@@H]1COCCN1c1cc(C2([S@](C)(=N)=O)CC2)nc(-c2ccnc3[nH]ccc23)n1 [AZD6738] + O=C(c1cc(Cc2n[nH]c(=O)c3ccccc23)ccc1F)N1CCN(C(=O)C2CC2)CC1 [Olaparib] (first compound max 10 µM, 7x7, partner max 10 µM) | -0.0556 | 0.0543 | -0.0064 | 0.0138 | 0.0343 | 0.0118 | 0.0166 | -0.0083 | -0.0157 | -0.001 | -0.0275 | 0.0033 | 0.0156 | -0.0327 | 0.0114 | 0.0023 | -0.0471 | 0.0285 | -0.0095 | -0.014 |
| Cc1cc2ncnn2cc1Nc1ncc2c(n1)n(C1CCOCC1)c(=O)n2C [AZD7648] + O=C(c1cc(Cc2n[nH]c(=O)c3ccccc23)ccc1F)N1CCN(C(=O)C2CC2)CC1 [Olaparib] (first compound max 10 µM, 7x7, partner max 10 µM) | -0.0368 | -0.0626 | -0.019 | -0.035 | 0.0195 | -0.0264 | -0.0391 | -0.0669 | -0.0604 | -0.0411 | -0.0151 | -0.0597 | -0.0299 | -0.054 | 0.0017 | 0.0031 | -0.0706 | -0.0776 | -0.0391 | -0.0071 |
| COc1cccc(OCCCN)c1-c1cc(Nc2cnc(C#N)cn2)n[nH]1 [Prexasertib] + C=CCn1c(=O)c2cnc(Nc3ccc(N4CCN(C)CC4)cc3)nc2n1-c1cccc(C(C)(C)O)n1 [AZD1775] (first compound max 1 µM, partner max 1 µM) | 0.0467 | 0.0633 | 0.0716 | 0.0787 | -0.0202 | 0.0303 | 0.0354 | 0.0513 | 0.0948 | 0.0901 | 0.0981 | 0.0443 | 0.147 | 0.11 | 0.0653 | 0.0553 | -0.0448 | -0.0212 | -0.0368 | 0.0809 |
| C=CCn1c(=O)c2cnc(Nc3ccc(N4CCN(C)CC4)cc3)nc2n1-c1cccc(C(C)(C)O)n1 [AZD1775] + O=C(c1cc(Cc2n[nH]c(=O)c3ccccc23)ccc1F)N1CCN(C(=O)C2CC2)CC1 [Olaparib] (first compound max 1 µM, partner max 10 µM) | -0.0211 | 0.0059 | 0.0004 | -0.0201 | -0.0157 | -0.0523 | -0.0169 | -0.0087 | -0.0114 | 0.0046 | -0.0554 | -0.0605 | -0.0292 | -0.0452 | -0.0021 | -0.0302 | -0.0334 | 0.0324 | -0.0383 | 0.0627 |
| Cc1cc2ncnn2cc1Nc1ncc2c(n1)n(C1CCOCC1)c(=O)n2C [AZD7648] + C=CCn1c(=O)c2cnc(Nc3ccc(N4CCN(C)CC4)cc3)nc2n1-c1cccc(C(C)(C)O)n1 [AZD1775] (first compound max 10 µM, partner max 1 µM) | -0.0511 | -0.0014 | 0.0163 | -0.0388 | -0.0079 | 0.0263 | 0.0217 | -0.0038 | 0.0181 | 0.0495 | -0.0457 | -0.0328 | 0.022 | -0.0068 | 0.0245 | 0.0367 | -0.117 | 0.0563 | 0.0249 | -0.0216 |
| CCN(CCO)CCCOc1ccc2c(Nc3cc(CC(=O)Nc4cccc(F)c4)[nH]n3)ncnc2c1 [AZD2811] + C[C@@H]1COCCN1C2=NC(=NC(=C2)C3(CC3)[S@](=N)(=O)C)C4=C5C=CNC5=NC=C4 [AZD6738] (first compound max 1 µM, 7x7, partner max 10 µM) | -0.0647 | -0.0554 | -0.0021 | -0.0709 | 0.134 | -0.0644 | -0.0345 | 0.0036 | 0.0413 | -0.0513 | -0.0776 | -0.0709 | -0.0462 | -0.0417 | 0.041 | -0.0944 | -0.0298 | -0.0925 | -0.0822 | -0.0089 |
| CN(CCO)CC[C@H](CSc1ccccc1)Nc1ccc(S(=O)(=O)NC(=O)c2ccc(N3CCC([C@@H](O)c4ccccc4-c4ccc(Cl)cc4)CC3)cc2)cc1S(=O)(=O)C(F)(F)F [AZD4320] + CN(C)CCCOc1ccc(-c2ccc3ncc4c(c3c2)n(C2CCOCC2)c(=O)n4C)cn1 [AZD0156] (first compound max 1 µM, 7x7, partner max 1 µM) | 0.0153 | 0.0079 | -0.0592 | -0.0489 | -0.044 | 0.0034 | -0.0469 | 0.0109 | -0.0129 | -0.0429 | 0.0228 | -0.0567 | -0.017 | -0.0591 | -0.0248 | -0.0326 | -0.0358 | -0.0501 | -0.056 | 0.0109 |
| Cc1c2c(nn1C)CSCc1cc(n(C)n1)CSc1cc(c3ccccc3c1)OCCCc1c(C(=O)O)n(C)c3c-2c(Cl)ccc13 [AZD5991] + C1CN(CCC1(C(=O)N[C@@H](CCO)C2=CC=C(C=C2)Cl)N)C3=NC=NC4=C3C=CN4 [Capivasertib] (first compound max 1 µM, 7x7, partner max 3 µM) | 0.0066 | 0.0627 | -0.0113 | 0.0136 | -0.0225 | -0.0203 | 0.0165 | -0.0169 | 0.0708 | -0.0198 | -0.0315 | -0.0021 | 0.0226 | 0.0993 | 0.0425 | 0.0484 | -0.0244 | 0.0054 | -0.0066 | 0.0714 |
| CN(CCO)CC[C@H](CSc1ccccc1)Nc1ccc(S(=O)(=O)NC(=O)c2ccc(N3CCC([C@@H](O)c4ccccc4-c4ccc(Cl)cc4)CC3)cc2)cc1S(=O)(=O)C(F)(F)F [AZD4320] + C=CCn1c(=O)c2cnc(Nc3ccc(N4CCN(C)CC4)cc3)nc2n1-c1cccc(C(C)(C)O)n1 [AZD1775] (first compound max 1 µM, partner max 1 µM) | 0.0361 | 0.0959 | 0.0417 | -0.0316 | 0.0017 | 0.042 | 0.0052 | 0.0252 | 0.0958 | -0.0545 | 0.0574 | -0.106 | -0.029 | -0.0421 | -0.0494 | -0.0041 | -0.0585 | -0.0586 | -0.0137 | 0.0494 |
| CC1(C)CCC(CN2CCN(c3ccc(C(=O)NS(=O)(=O)c4ccc(NCC5CCOCC5)c([N+](=O)[O-])c4)c(Oc4cnc5[nH]ccc5c4)c3)CC2)=C(c2ccc(Cl)cc2)C1 [Venetoclax] + C=CCn1c(=O)c2cnc(Nc3ccc(N4CCN(C)CC4)cc3)nc2n1-c1cccc(C(C)(C)O)n1 [AZD1775] (first compound max 1 µM, partner max 1 µM) | -0.0319 | 0.0309 | 0.143 | -0.0538 | 0.0401 | -0.0447 | -0.0465 | 0.054 | 0.0747 | -0.0029 | -0.0175 | -0.0132 | 0.0078 | 0.0033 | 0.0125 | -0.0002 | -0.0109 | -0.0649 | -0.0497 | -0.0022 |
| CC1(C)CCC(CN2CCN(c3ccc(C(=O)NS(=O)(=O)c4ccc(NCC5CCOCC5)c([N+](=O)[O-])c4)c(Oc4cnc5[nH]ccc5c4)c3)CC2)=C(c2ccc(Cl)cc2)C1 [Venetoclax] + C[C@@H]1COCCN1C2=NC(=NC(=C2)C3(CC3)[S@](=N)(=O)C)C4=C5C=CNC5=NC=C4 [AZD6738] (first compound max 1 µM, 7x7, partner max 10 µM) | 0.0001 | 0.004 | -0.0319 | 0.0189 | -0.0176 | -0.013 | -0.119 | -0.0346 | -0.0268 | -0.009 | -0.0656 | -0.0247 | -0.032 | -0.105 | 0.0094 | 0.0449 | -0.2 | -0.0458 | -0.0419 | 0.0082 |
| CN(CCO)CC[C@H](CSc1ccccc1)Nc1ccc(S(=O)(=O)NC(=O)c2ccc(N3CCC([C@@H](O)c4ccccc4-c4ccc(Cl)cc4)CC3)cc2)cc1S(=O)(=O)C(F)(F)F [AZD4320] + C[C@@H]1COCCN1C2=NC(=NC(=C2)C3(CC3)[S@](=N)(=O)C)C4=C5C=CNC5=NC=C4 [AZD6738] (first compound max 1 µM, 7x7, partner max 10 µM) | -0.0221 | 0.155 | -0.0095 | -0.0272 | 0.019 | -0.0159 | -0.0413 | -0.0004 | 0.0567 | -0.0528 | -0.0348 | -0.0757 | -0.0286 | -0.0016 | 0.0029 | -0.0069 | -0.0413 | -0.157 | -0.0496 | -0.0091 |
